Data taken from patent publication US20030109418A1, “Methods for identifying compounds for inhibition of neoplastic lesions, and pharmaceutical compositions containing such compounds” (priority 1999, published 2003).
Where a name gives a salt, the structure may show the parent alone.

Columns and labels:
Molt-4 = assay: Growth inhibition, neutral red assay, Molt-4; assay type: cell-based; conditions: Homo sapiens, HCl salt
Protocol: (§1) Compound I's activity is not confined to activity against colon cancer cell lines or animal models of colon cancer. It has a broad range of anti-neoplastic effects in various neoplastic cell lines. Various types of human cancer cell lines were propagated under sterile conditions in RPMI 1640 medium with 10% fetal bovine serum, 2 mM L-glutamine and sodium bicarbonate. To determine growth inhibitory effects of Compound I, cells were seeded in 96-well plates at a density of 1000 cells per well. Twenty-four hours after plating, the cells were dosed with various concentrations of the free base of Compound I solubilized in DMSO (final concentration 0.1%). The effect of the drug on tumor cell growth was determined using the neutral red cytotoxicity assay following five days of continuous treatment. Neutral red is a dye that is selectively taken up by viable cells by an ATP-dependent transport mechanism.

OVCAR = assay: Growth inhibition, neutral red assay, OVCAR; assay type: cell-based; conditions: Homo sapiens; HCl salt
Protocol: as §1

[1] = Seven-day dose-range finding study in rats; assay type: in vivo, rat
[2] = system: PrEC primary prostate epithelial cell cultures; assay: Histone-associated DNA fragmentation in normal prostate epithelial cells; assay type: cell-based; conditions: 50 μM, up to 4 days
Protocol: The androgen-sensitive prostate tumor cell line, LNCaP (from ATCC (Rockville, Md.)) was propogated under standard conditions using […] medium containing 5% fetal calve serum and 2 mM glutamine. Primary prostate epithelial cell cultures (PrEC) derived from normal prostate (from Clonetics Inc. (San Diego, Calif.)) were grown under the same conditions as the tumor cell line except a serum-free medium optimized for the growth of such cultures was used (Clonetics Inc). For the experiments, LNCaP or PrEC cells were seeded in 96 well plates at a density of 10,000 cells per well. After 24 hours, the cells were treated with either vehicle (0.1% DMSO) or 50 μM Compound I (free base) solubilized in DMSO. After various drug treatment times (4, 24, 48, 72, or 99 hours) the cells were lysed and processed for measurement of histone-associated DNA as an indicator of apoptotic cell death (see, Piazza et al., Cancer Research 57: 2452-2459, 1997).
This is in marked contrast to conventional chemotherapeutics that induce apoptosis or necrosis in rapidly growing normal and neoplastic cells alike.

SW-480 cell line = assay: Growth inhibition in SW-480; assay type: cell-based; conditions: Homo sapiens, SW480
Protocol: The growth inhibition IC50 value obtained for Compound I was 0.7 μM in the SW-480 cell line. […] This established rodent model of azoxymethane (“AOM”)-induced carcinogenesis was used to assess the effects of Compound I (free base and salt) on colon cancer development in vivo. ACF are precursors to colonic tumors, and ACF inhibition is predictive of chemo-preventive efficacy.

[3] = system: PKG activity in SW480 colon cancer cells; assay: PKG assay of lysates of drug-treated SW480 cells; assay type: cell-based, human; conditions: SW480 treated 48 hrs; exisulind 200, 400, 600 μM; E4021 0.1, 1, 10 μM; with and without added cGMP
From the text: That sequence is known and described in the literature below. […] One way to bind the PDE5 sequences to a solid phase is to express those sequences as a fusion protein of the PDE5 sequence and one member of an amino acid binding pair, and chemically link the other member of that amino acid binding pair to a solid phase (e.g., beads). One binding pair that can be used is glutathione S-transferase (“GST”) and glutathione (“GSH”), with the GST being expressed as a fusion protein with the PDE5 sequence described above, and the GSH bound covalently to the solid phase. In this fashion, the PDE5 sequence/GST fusion protein can be bound to a solid phase simply by passing a solution containing the fusion protein over the solid phase, as described below.
To assay a liquid sample believed to contain PKG using the PDE5-bound solid phase described above, the sample and the solid phase are mixed with phosphorylation buffer containing ^32P-γ-ATP. The solution is incubated for 30 minutes at 30° C. to allow for phosphorylation of the PDE5 sequence by PKG to occur, if PKG is present. […]
For each control or drug cell lysate sample to be evaluated, the reaction is started by adding phosphorylation buffer containing 10 μCi ^32P-γ-ATP solution (200 μM ATP, 4.5 mM MgCl; 5 mM KH2PO4; 5 mM K2HPO4;) to each mixture. […]

Row | SMILES | GI50 (Molt-4) | GI50 (OVCAR) | signs of toxicity, seven-day study ([1]; 50 mg/kg/day) | treatment-related effects, seven-day study ([1]; 500 mg/kg/day) | effects, seven-day study ([1]; 2000 mg/kg/day) | DNA fragmentation in PrEC (normal prostate) cells [2] | IC50 (SW-480 cell line) | PKG activity relative to control [3]
1 | CC1=C(CC(=O)NCc2ccccc2)c2cc(F)ccc2/C1=C\c1ccncc1 [Compound I, (Z)-5-fluoro-2-methyl-(4-pyridylidene)-3-(N-benzyl)indenylacetamide hydrochloride] | 1.6 µM | 1.2 µM | no observable signs of toxicity | increase in absolute and relative liver weights in female rats | labored breathing and/or abnormal respiratory sounds, decreased weights gains and food consumption in male rats, and increased liver weights in female rats | did not affect DNA fragmentation | 0.7 µM | 
2 | CC1=C(CC(=O)O)c2cc(F)ccc2/C1=C\c1ccc(S(C)(=O)=O)cc1 [Exisulind, 5-fluoro-2-methyl-1-(p-methylsulfonylbenzylidene)-3-indenylacetic acid] |  |  |  |  |  |  |  | causes PKG activity to increase in a dose-dependent manner
